Results: patent US11975099B2, “Ethanol foam sclerosing agent for treating vascular anomalies and preparation method thereof” (QILU HOSPITAL OF SHANDONG UNIVERSITY, priority 2019, dated 2024)

Experiments:
rabbit ear edge = assay: Animal experiment: rabbit ear edge injection; type: in vivo; conditions: 0.5 mL injected, New Zealand white rabbits
Experimental: Animal experiment: A first experimental group: the experimental subjects were 20 New Zealand white rabbits with the body weight of 1.5 kg, injected with 0.5 mL of absolute ethanol solution. A second experimental group: the experimental subjects were 20 New Zealand white rabbits with the body weight of 1.5 kg, injected with 0.5 mL of the foam sclerosing agent of Embodiment 1. The edges of ears of the experimental subjects in the first experimental group and the second experimental group were all intact before the experiment.

[1] = Plasma experiment (protein coagulation in anticoagulant blood); conditions: added to 1 mL fresh human anticoagulant blood in test tube
Experimental: Plasma experiment: A plasma experiment was performed using absolute ethanol and the sclerosing agent solution of Embodiment 1. As shown in A of FIG. 3, 1 mL of fresh human anticoagulant blood was taken. As shown in C of FIG. 3, absolute ethanol was added to a test tube, and as shown in B of FIG. 3, the sclerosing agent solution of Embodiment 1 was added to a test tube.

reaction of ear edge 3 days after the injection (rabbit ear edge; 3 days): the whole ear has obvious hematoma | reaction of ear edge 7 days after the injection (rabbit ear edge; 7 days): the swelling is reduced
Compound: CCO [absolute ethanol]
reaction of ear edge 25 days after the injection (rabbit ear edge; 25 days): the local blood vessels and some normal tissues are destroyed, resulting in tissue defect of the rabbit ear edge | reaction of ear edge immediately after the injection (rabbit ear edge; immediately after injection): extensive and large-area hematoma appears on the ear edge immediately | coagulation of the protein in the plasma [1]: coagulated the protein in the plasma
